BindingDB's records for doi:10.1007/s00213-002-1073-7 (WestfÄLische Wilhelms-Universit&Auml, 2002)

Columns and labels:
[1] = molecular target: Sodium-dependent dopamine transporter (Bos taurus, UniProt P27922)
Mu-type opioid receptor = Mu-type opioid receptor (Homo sapiens, UniProt P35372)
[2] = molecular target: T1, Alpha-1A adrenergic receptor (Homo sapiens, UniProt P35348)
T1 sequence (P35348 whole entry): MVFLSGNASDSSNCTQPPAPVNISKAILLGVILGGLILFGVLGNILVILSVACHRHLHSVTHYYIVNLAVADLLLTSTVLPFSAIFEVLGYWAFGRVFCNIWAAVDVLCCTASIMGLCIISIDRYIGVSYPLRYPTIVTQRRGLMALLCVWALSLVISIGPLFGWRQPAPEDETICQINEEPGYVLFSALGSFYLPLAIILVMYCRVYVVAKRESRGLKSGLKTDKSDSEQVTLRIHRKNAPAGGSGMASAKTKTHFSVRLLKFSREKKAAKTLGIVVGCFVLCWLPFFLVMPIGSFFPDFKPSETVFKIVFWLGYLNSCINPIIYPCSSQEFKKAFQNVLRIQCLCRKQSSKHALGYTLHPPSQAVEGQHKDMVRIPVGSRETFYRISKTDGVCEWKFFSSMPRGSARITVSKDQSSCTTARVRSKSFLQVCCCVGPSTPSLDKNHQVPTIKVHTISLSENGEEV

[3] = molecular target: Delta-type opioid receptor (Sus scrofa, UniProt P79291)
Chain of Delta-type opioid receptor (Sus scrofa, UniProt P79291) (P79291 whole entry): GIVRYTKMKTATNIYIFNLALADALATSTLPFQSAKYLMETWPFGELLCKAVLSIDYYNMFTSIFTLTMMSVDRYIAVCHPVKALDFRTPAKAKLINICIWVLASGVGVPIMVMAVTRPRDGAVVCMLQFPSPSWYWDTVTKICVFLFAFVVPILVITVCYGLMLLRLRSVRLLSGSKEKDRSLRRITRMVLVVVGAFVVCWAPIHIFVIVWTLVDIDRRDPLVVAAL

[4] = molecular target: Sodium-dependent noradrenaline transporter (Homo sapiens, UniProt P23975)
Chain of Sodium-dependent noradrenaline transporter (P23975 whole entry): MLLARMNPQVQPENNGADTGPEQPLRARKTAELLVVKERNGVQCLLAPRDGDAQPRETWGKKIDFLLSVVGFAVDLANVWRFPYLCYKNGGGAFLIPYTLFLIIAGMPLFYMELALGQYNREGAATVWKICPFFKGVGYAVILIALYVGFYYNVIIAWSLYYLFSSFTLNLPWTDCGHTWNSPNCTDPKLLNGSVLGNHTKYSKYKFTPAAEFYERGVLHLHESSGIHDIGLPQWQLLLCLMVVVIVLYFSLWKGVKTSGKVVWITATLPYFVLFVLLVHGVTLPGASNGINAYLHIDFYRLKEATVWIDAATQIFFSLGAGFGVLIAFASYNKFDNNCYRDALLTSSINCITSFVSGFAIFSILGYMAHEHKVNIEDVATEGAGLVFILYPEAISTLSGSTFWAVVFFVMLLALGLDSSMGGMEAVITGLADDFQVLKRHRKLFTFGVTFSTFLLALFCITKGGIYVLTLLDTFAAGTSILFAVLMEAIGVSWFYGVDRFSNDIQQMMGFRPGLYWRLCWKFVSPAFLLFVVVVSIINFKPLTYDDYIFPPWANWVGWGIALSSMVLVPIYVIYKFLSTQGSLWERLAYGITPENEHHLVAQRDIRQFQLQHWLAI

[5] = molecular target: Gamma-aminobutyric acid receptor subunit alpha-1 (Rattus norvegicus, UniProt P62813)
Chain of Gamma-aminobutyric acid receptor subunit alpha-1 (P62813 whole entry): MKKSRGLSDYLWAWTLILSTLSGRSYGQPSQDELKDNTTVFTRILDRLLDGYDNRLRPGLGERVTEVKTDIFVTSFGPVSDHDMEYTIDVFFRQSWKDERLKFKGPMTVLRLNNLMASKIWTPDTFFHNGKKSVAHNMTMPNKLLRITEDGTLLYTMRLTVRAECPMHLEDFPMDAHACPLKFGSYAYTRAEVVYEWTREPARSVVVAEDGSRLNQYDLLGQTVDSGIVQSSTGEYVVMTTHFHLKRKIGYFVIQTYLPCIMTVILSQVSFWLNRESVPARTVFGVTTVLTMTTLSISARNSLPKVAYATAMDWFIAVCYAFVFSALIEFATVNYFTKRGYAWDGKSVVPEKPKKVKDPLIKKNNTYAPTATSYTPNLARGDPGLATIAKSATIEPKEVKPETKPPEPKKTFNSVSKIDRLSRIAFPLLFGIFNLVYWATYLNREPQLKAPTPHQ

[6] = molecular target: Glutamate receptor ionotropic, NMDA 1 (Rattus norvegicus, UniProt P35439)
Vasopressin V2 receptor = Vasopressin V2 receptor (Homo sapiens, UniProt P30518)
Chain of Vasopressin V2 receptor (P30518 whole entry): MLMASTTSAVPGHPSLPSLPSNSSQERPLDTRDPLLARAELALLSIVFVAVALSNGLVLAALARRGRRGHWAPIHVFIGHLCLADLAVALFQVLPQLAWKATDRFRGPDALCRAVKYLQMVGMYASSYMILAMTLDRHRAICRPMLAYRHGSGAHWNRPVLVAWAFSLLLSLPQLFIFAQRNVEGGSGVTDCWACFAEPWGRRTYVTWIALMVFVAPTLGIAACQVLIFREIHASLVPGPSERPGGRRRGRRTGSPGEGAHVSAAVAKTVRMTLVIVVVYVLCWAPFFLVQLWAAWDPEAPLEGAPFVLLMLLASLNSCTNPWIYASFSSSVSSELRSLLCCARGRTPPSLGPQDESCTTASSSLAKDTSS

[7] = molecular target: Sodium-dependent serotonin transporter (Homo sapiens, UniProt P31645)
Chain of Sodium-dependent serotonin transporter (P31645 whole entry): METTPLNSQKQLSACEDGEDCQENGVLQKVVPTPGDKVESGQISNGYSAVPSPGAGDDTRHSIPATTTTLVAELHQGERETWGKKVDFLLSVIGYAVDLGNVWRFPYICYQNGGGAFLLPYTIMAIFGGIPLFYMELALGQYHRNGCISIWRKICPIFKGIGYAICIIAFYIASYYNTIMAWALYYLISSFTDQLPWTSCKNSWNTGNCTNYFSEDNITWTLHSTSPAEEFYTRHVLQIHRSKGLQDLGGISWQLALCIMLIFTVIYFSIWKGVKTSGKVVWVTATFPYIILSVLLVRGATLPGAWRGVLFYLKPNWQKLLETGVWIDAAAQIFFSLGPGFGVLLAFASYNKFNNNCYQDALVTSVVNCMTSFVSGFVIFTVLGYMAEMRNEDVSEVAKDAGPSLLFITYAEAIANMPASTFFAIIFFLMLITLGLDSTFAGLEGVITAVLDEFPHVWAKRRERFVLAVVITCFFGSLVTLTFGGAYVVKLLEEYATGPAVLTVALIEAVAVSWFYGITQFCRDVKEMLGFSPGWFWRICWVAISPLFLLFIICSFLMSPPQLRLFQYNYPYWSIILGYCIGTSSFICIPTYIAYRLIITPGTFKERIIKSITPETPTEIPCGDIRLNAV

[8] = molecular target: T2, 5-hydroxytryptamine receptor 2C (Rattus norvegicus, UniProt P08909)
T2 sequence (P08909 whole entry): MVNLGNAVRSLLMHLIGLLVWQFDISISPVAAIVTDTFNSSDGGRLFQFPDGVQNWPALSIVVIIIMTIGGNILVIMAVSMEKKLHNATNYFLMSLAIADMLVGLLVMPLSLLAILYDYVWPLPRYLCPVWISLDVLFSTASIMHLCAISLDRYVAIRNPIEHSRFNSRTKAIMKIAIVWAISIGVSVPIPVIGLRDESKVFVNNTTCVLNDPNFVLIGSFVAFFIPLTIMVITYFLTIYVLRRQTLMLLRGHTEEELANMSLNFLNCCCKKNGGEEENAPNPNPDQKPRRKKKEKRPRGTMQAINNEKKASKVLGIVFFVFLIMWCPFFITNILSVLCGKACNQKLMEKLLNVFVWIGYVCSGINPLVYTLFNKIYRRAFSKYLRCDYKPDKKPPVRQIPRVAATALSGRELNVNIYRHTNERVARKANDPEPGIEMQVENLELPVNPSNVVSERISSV

[9] = molecular target: T3, Muscarinic acetylcholine receptor M5 (Homo sapiens, UniProt P08912)
T3 sequence (P08912 whole entry): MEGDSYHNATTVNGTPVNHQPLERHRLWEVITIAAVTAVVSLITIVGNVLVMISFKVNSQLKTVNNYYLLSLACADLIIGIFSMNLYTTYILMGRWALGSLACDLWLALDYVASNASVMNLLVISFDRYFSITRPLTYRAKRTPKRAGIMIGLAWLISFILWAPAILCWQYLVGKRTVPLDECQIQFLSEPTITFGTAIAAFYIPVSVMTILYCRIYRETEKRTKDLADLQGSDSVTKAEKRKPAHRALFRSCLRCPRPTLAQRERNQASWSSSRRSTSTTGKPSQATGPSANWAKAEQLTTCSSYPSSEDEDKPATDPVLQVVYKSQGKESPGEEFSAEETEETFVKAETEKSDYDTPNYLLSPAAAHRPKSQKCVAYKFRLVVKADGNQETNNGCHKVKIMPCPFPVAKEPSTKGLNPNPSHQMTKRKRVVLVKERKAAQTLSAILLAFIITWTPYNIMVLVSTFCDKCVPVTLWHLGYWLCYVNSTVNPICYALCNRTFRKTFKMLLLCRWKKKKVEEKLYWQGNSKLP

[10] = molecular target: T4, Alpha-2A adrenergic receptor (Homo sapiens, UniProt P08913)
T4 sequence (P08913 whole entry): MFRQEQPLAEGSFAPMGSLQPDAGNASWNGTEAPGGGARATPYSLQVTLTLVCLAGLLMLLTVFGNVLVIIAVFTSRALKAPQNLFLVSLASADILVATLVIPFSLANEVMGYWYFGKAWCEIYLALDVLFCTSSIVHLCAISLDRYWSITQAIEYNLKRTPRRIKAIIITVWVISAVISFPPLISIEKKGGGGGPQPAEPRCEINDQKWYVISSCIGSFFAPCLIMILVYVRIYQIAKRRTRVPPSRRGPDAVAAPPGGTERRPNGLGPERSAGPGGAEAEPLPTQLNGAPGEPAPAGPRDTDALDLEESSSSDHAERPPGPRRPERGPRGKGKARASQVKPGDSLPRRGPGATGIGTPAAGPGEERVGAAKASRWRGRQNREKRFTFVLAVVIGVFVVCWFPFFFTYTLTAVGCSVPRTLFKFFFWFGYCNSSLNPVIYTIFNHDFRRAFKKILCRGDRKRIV

[11] = molecular target: 5-hydroxytryptamine receptor 2C (Homo sapiens, UniProt P28335)
Chain of 5-hydroxytryptamine receptor 2C (Homo sapiens, UniProt P28335) (P28335 whole entry): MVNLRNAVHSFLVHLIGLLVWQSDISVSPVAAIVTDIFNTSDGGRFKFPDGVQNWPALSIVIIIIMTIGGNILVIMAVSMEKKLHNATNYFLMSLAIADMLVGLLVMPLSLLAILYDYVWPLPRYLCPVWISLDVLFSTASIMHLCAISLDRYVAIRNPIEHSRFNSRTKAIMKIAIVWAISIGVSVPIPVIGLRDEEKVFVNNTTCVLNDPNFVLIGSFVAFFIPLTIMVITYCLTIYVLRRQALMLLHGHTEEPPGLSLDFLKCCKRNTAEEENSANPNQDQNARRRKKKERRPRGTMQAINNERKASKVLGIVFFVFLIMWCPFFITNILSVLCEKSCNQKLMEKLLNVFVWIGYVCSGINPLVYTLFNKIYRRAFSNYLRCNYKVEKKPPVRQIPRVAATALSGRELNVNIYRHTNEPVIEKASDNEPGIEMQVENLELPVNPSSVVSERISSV

[12] = molecular target: 5-hydroxytryptamine receptor 1B (Homo sapiens, UniProt P28222)
Chain of 5-hydroxytryptamine receptor 1B (P28222 whole entry): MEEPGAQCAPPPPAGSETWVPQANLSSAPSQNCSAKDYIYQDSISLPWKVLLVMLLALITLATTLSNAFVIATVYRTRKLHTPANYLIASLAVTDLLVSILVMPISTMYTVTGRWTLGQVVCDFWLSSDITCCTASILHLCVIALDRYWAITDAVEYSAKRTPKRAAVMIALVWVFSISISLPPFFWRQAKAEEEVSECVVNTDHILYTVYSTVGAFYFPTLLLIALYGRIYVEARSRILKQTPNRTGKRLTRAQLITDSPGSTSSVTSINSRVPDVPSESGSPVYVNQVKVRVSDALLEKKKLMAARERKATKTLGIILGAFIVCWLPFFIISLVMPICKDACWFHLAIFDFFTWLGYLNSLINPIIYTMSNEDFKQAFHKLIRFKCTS

[13] = molecular target: Delta-type opioid receptor (Homo sapiens, UniProt P41143)
Chain of Delta-type opioid receptor (Homo sapiens, UniProt P41143) (P41143 whole entry): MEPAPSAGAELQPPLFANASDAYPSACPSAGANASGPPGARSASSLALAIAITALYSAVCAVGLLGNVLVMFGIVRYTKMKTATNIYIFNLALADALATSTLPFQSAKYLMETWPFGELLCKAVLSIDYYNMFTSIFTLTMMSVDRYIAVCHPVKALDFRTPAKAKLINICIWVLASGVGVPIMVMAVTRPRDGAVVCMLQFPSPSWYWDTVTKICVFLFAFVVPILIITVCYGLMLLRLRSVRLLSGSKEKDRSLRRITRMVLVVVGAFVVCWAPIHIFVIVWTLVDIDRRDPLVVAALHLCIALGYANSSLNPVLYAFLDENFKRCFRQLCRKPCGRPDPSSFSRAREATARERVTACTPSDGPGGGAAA

Chain of Sodium-dependent dopamine transporter (P27922 whole entry): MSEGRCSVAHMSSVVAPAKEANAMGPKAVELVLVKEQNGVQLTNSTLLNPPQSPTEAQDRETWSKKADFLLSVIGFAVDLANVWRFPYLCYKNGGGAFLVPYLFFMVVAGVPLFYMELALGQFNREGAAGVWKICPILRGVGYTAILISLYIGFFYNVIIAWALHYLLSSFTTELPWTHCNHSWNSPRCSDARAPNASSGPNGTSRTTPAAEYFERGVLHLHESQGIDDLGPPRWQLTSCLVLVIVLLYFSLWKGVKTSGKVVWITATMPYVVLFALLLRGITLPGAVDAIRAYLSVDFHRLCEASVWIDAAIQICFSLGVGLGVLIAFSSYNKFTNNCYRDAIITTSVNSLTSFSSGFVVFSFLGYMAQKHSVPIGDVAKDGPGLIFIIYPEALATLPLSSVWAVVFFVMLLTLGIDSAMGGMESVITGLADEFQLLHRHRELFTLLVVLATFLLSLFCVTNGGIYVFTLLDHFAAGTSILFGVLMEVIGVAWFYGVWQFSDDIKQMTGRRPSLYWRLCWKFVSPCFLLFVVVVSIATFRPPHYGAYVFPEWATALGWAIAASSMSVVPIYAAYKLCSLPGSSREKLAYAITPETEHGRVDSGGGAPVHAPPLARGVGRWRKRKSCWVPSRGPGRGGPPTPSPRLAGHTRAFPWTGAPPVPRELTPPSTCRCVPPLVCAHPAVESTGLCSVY
Chain of Mu-type opioid receptor (P35372 whole entry): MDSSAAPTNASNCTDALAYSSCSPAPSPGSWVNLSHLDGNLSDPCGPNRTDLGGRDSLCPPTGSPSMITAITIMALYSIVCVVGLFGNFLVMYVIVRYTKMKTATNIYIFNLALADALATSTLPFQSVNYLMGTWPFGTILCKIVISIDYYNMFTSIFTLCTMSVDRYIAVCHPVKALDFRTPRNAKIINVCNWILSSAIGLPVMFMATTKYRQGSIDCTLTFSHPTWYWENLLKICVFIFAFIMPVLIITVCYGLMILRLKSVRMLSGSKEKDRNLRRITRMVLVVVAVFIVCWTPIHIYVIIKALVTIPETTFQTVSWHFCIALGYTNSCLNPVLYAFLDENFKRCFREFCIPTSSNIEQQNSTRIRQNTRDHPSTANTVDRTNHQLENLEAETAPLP

Row | SMILES | Ki [1] [µM] | Ki (Mu-type opioid receptor) [µM] | Ki [2] [µM] | Ki [3] [µM] | Ki [4] [µM] | Ki [5] [µM] | Ki [6] [µM] | Ki (Vasopressin V2 receptor) [µM] | Ki [7] [µM] | Ki [8] [µM] | Ki [9] [µM] | Ki [10] [µM] | Ki [11] [µM] | Ki [12] [µM] | Ki [13] [µM]
1 | O=c1cc(O)cc2oc(-c3ccc(O)c(O)c3)c(OC3OC(CO)C(O)C(O)C3O)c(O)c1-2 (configuration not stated) [NSC_5318390] | > 10 | > 10 | > 10 | > 10 | > 10 | > 10 | > 10 | > 10 | > 10 | > 10 | > 10 | – | – | – | –
2 | CC(C)=CCC[C@]1(C)[C@@H](CC=C(C)C)C[C@]2(CC=C(C)C)C(=O)C(CC=C(C)C)C(=O)[C@]1(C(=O)C(C)C)C2=O (some centres not stated) | > 10 | > 10 | > 10 | > 10 | > 10 | > 10 | > 10 | > 10 | – | > 10 | > 10 | > 10 | – | – | –
3 | C[C@@H]1O[C@@H](Oc2c(-c3ccc(O)c(O)c3)oc3cc(O)cc(=O)c-3c2O)[C@H](O)[C@H](O)[C@H]1O | > 10 | > 10 | > 10 | > 10 | > 10 | > 10 | > 10 | > 10 | > 10 | > 10 | > 10 | > 10 | – | – | –
4 | O=c1c(O)c(-c2ccc(O)c(O)c2)oc2cc(O)cc(O)c12 [2-(3,4-dihydroxyphenyl)-3,5,7-trihydroxy-chromone;hydrate] | > 10 | – | – | > 10 | – | – | – | – | – | > 10 | > 10 | > 10 | – | – | –
5 | C[C@@H]1O[C@@H](OC[C@H]2O[C@@H](Oc3c(-c4ccc(O)c(O)c4)oc4cc(O)cc(O)c4c3=O)[C@H](O)[C@@H](O)[C@@H]2O)[C@H](O)[C@H](O)[C@H]1O [3-Rhamnoglucosylquercetin] | > 10 | > 10 | > 10 | > 10 | > 10 | > 10 | > 10 | > 10 | > 10 | > 10 | 0.0351 | 9.34 | – | – | –
6 | O=c1cc(O)cc2oc(-c3ccc(O)c(-c4c(O)cc(O)c5c(=O)cc(-c6ccc(O)cc6)oc45)c3)cc(O)c1-2 | 0.877 | > 10 | > 10 | – | > 10 | – | > 10 | > 10 | – | – | > 10 | > 10 | 2.56 | 4.09 | 0.0365
